Measurements: PubChem BioAssay (NCI)
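The compound was tested at five concentrations on cells cultured in 96-well plates, with a 48-hour exposure period. TGI denotes the concentration required for complete inhibition of growth.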 Peptide text beside a SMILES is read from it. * marks the point of attachment. Cbz = O=C(OCc1ccccc1)*

Key:
Test in all cases: DTP human tumour cell line panel, 48 h
[1] = tested on: UO-31 renal
[2] = tested on: NCI-H226 lung
[3] = tested on: HCT-116 colon
[4] = tested on: EKVX NSCLC
[5] = tested on: HCC-2998 colon
[6] = tested on: UACC-62 melanoma
[7] = tested on: OVCAR-3 ovarian
[8] = tested on: RXF 393 renal
[9] = tested on: UACC-257 melanoma
[10] = tested on: SF-295 CNS
[11] = tested on: SR leukemia
[12] = tested on: A498 renal
[13] = tested on: DU-145 prostate
[14] = tested on: NCI/ADR-RES ovarian
[15] = tested on: T-47D breast
[16] = tested on: MDA-MB-435

| SMILES | TGI [1] [µM] | TGI [2] [µM] | TGI [3] [µM] | TGI [4] [µM] | TGI [5] [µM] | TGI [6] [µM] | TGI [7] [µM] | TGI [8] [µM] | TGI [9] [µM] | TGI [10] [µM] | TGI [11] [µM] | TGI [12] [µM] | TGI [13] [µM] | TGI [14] [µM] | TGI [15] [µM] | TGI [16] [µM] |
| --- | --- | --- | --- | --- | --- | --- | --- | --- | --- | --- | --- | --- | --- | --- | --- | --- |
| COc1cc2c(cc1OC)C(Cc1cc(Br)c(OC)c(OC)c1)=[N+](C)CC2 | > 100 | > 100 | > 100 | > 100 | > 100 | > 100 | > 100 | > 100 | > 100 | > 100 |  |  |  |  |  |  |
| CN(C)CCSC(=Nc1ccccc1)n1cccc1 | > 100 | 75.7 | > 100 |  |  | > 100 | > 100 | > 100 | > 100 | > 100 | > 100 |  |  |  |  |  |
| COc1ccc([C@H]2[C@@H]3CCc4ccccc4C3=NN2C(N)=S)cc1OC | > 100 | > 100 | > 100 | > 100 | > 100 | > 100 | > 100 | > 100 | > 100 |  | 72.4 | > 100 |  |  |  |  |
| COc1cccc(C=C(C#N)C#N)c1OC | > 100 | > 100 | > 100 | > 100 | > 100 | > 100 | > 100 | > 100 | > 100 | > 100 | > 100 |  | > 100 | > 100 |  |  |
| Cc1ccc([N+](=O)[O-])cc1NC(=O)/C(CC(=O)c1sc(C(N)=S)nc1C)=N\N | > 100 |  | > 100 | > 100 | > 100 | > 100 | 80.7 | > 100 | > 100 | > 100 | > 100 | > 100 |  |  |  |  |
| O=C1CCCc2cc3c(cc21)CC1(C3)Cc2cc3c(cc2C1)C(=O)CCC3 | 81.4 | 23.4 | 37.9 | > 100 | 10.4 | 30.9 | 7.2 | > 29.3 | 31.2 | > 56 |  | 53.6 | 19 | 6.65 | > 100 |  |
| CN(C)c1ccc(/C=C2\C[C@H]3[C@@H]4CC=C5C[C@@H](O)CC[C@]5(C)[C@H]4CC[C@]3(C)[C@H]2O)cc1 | 36.9 | 34.7 | 28.1 | 23.8 |  | 30.2 | 59.8 | 68 | 35.7 | 44.8 | > 100 | 31.5 | > 100 | 43.7 | 76.6 |  |
| COc1ccc(-n2nnc3c(C#N)c(C)c(-c4ccccc4)n3c2=O)cc1 | > 100 | > 100 | 2.65 | > 26.1 | > 33.2 | > 100 | 44.6 | > 21.4 | > 100 | > 27.5 | > 100 | > 100 | 8 | 21.1 | > 100 |  |
| CC(=O)OCc1ncccc1C(OC(C)=O)OC(C)=O | > 100 |  | > 100 | > 100 |  | > 100 | > 100 | > 100 | > 100 | > 100 | > 100 | > 100 |  |  |  |  |
| C/C=C/C(O)P(=O)(OC)OC (configuration not stated) | 0.334 | 1.39 | 0.835 | 1.51 | 0.774 | 0.785 | 0.783 | 0.543 | 0.792 | 1.39 | > 100 | 0.955 | 1.49 |  | 1.55 | 0.802 |
| C[C@@H]1C[C@@H]2C(=O)N(c3ccccc3)C(=O)[C@@H]2c2[nH]c3ccc(Br)cc3c21 | > 100 |  | > 100 | > 100 | > 100 | > 100 | 51.7 | 78.5 | > 100 | 90.9 | > 100 | > 100 |  |  |  |  |
| CCOc1cc2cnc3c4cc(OC)c(OC)cc4ccc3c2cc1OC | > 100 | > 100 | > 100 | > 100 | > 100 | > 100 | > 100 | > 100 | > 100 | > 100 | > 100 |  |  |  |  |  |
| COc1ccc(OC)c2c1ccc1c(C)c3ccccc3c(C)c12 | > 100 | > 100 | > 100 |  | 45.8 | > 100 | > 100 |  | > 100 |  | > 100 | > 100 | > 100 |  | > 100 | > 100 |
| CCOC(=O)/C(=C/c1ccccc1)N(CC)CC | > 100 | > 100 | > 100 | > 100 | > 100 | > 100 | > 100 |  | > 100 | > 100 | > 100 | > 100 |  |  |  |  |
| COc1ccc(C2S/C(=C\c3ccc([N+](=O)[O-])cc3)C(=O)N2NC(=O)Cc2ccccc2)cc1 (configuration not stated) | > 100 | > 100 | > 100 |  |  | > 100 |  | > 100 | > 100 | > 100 | > 100 | > 100 |  |  |  |  |
| CC(=O)NC(CCCCN(Cc1ccccc1)C(=O)N(C)N=O)C(=O)NCc1ccccc1 (configuration not stated) | > 100 | > 100 | > 100 | > 100 | > 100 | > 100 | > 100 | > 100 | > 100 | > 100 |  | > 100 |  |  |  |  |
| CC(C)C1COC(C(C)(C)C2=N[C@@H](C(C)C)CO2)=N1 (some centres not stated) | > 100 | > 100 | > 100 | > 100 | > 100 | > 100 | > 100 | > 100 | > 100 | > 100 | > 100 |  |  |  |  |  |
| CCOC(=O)CCC(NC(=O)CNC(=O)CNC(=O)C(CCC(=O)OCC)NC(=O)C(CCC(=O)OCC)NC(=O)C(CCC(=O)OCC)NC(=O)OCc1ccccc1)C(=O)NC(CCC(=O)OCC)C(=O)NC(CCC(=O)OCC)C(=O)OCC (configuration not stated) (Cbz-E(OEt)E(OEt)E(OEt)GGE(OEt)E(OEt)E(OEt)-OEt; configuration not given here) | > 75 |  | > 75 | > 75 |  | > 75 |  | > 75 | > 75 | > 75 | > 75 |  | > 75 | > 75 |  | > 75 |
| O=C1C2CCCCC2C(=O)N1n1c(Cc2ccccc2)n[nH]c1=O (configuration not stated) | > 100 | > 100 | > 100 | > 100 | > 100 | > 100 | > 100 | > 100 | > 100 | > 100 | > 100 | > 100 |  | > 100 | > 100 | > 100 |
| CNc1cc(Cl)ccc1C(=O)N1CCC[C@H]1CO | > 100 | > 100 | > 100 | > 100 |  | > 100 |  | > 100 | > 100 | > 100 |  | > 100 | > 100 | > 100 | > 100 | > 100 |
| CC1(C)OC2C(O1)[C@H]1OC(C(Cl)(Cl)Cl)=N[C@H]1C(I)[C@H]2N1C(=O)c2ccccc2C1=O (some centres not stated) |  | > 100 | > 100 | > 100 |  | > 100 |  | 88.6 | > 100 | > 100 | 65.4 | > 100 |  |  |  |  |
| NC(=S)N/N=C(/CCN1CCCC1)CC(C1=C(O)C2=CCCCC2OC1=O)c1ccccc1 (configuration not stated) | > 100 | > 100 | > 100 | > 100 | > 100 | > 100 | > 100 | > 100 | > 100 | > 100 | > 100 | > 100 |  |  |  |  |
| COc1cc(CO)cc2c1[nH]c1ccccc12 | > 25 | 5.27 | > 25 |  | > 25 | > 25 | > 25 | > 25 |  |  | > 25 |  |  |  |  |  |
| CN1C(CC(O)c2ccccc2)CCCC1CC(O)(c1ccccc1)c1ccccc1 (configuration not stated) | 20.8 | 38.5 | 29.1 | 64.5 | 37.8 | 40.7 | 31.3 | 28.9 | 33.4 | 30.8 | 56.6 |  | 45.6 | 33.5 | 52.7 |  |
| COC(=O)[C@H]1C2CC[C@@H]3C45C[C@@H](c6ccoc6)O[C@@H]4O[C@@H](O2)C31CCC5C (some centres not stated) | > 100 | > 100 | > 100 | > 100 | > 100 | > 100 | > 100 |  | > 100 | > 100 |  | > 100 |  |  |  |  |
| O[C@]12c3ccccc3C1CCCC2N1CCOCC1 (some centres not stated) | > 100 | > 100 | > 100 | > 100 |  | > 100 |  | > 100 | > 100 | > 100 |  |  |  |  |  |  |
| O=C(O)c1ccc2[nH]c(=O)oc2c1 |  | > 100 | > 100 | > 100 |  | > 100 | > 100 | > 100 | > 100 | > 100 | > 100 | > 100 | > 100 | > 100 |  | > 100 |
| O=C(Cn1c2c(c3ccccc31)CCCC2)N1CCOCC1 | > 100 |  | > 100 | > 100 | > 100 | > 100 | > 100 |  | > 100 | > 100 |  | > 100 |  | > 100 |  | > 100 |
